Assays:
[1] = tested on: JEG-3 (human placental choriocarcinoma cell line); assay: Cytotoxicity test (MTT assay) in JEG-3
[2] = tested on: JEG-3 (human placental choriocarcinoma cell line); assay: Real-time RT-PCR quantification of gene expression in drug-treated JEG-3; type: cell-based; details: for Real time PCR (Relative ratio), KIAA0310: GenBank AB002308; for Real time PCR (Relative ratio), ATP10B: GenBank AB018258; for Real time PCR (Relative ratio), TTF2: GenBank AB209845; for Real time PCR (Relative ratio), TncRNA: GenBank AF001893; for Real time PCR (Relative ratio), C4orf19: GenBank AK001879; for Real time PCR (Relative ratio), CYP19A1: GenBank AK023571; for Real time PCR (Relative ratio), SLC40A1: GenBank AK023574; for Real time PCR (Relative ratio), ABTB2: GenBank AK095632; for Real time PCR (Relative ratio), TUBB3: GenBank AK122757; for Real time PCR (Relative ratio), MGC27016: GenBank AK125877; for Real time PCR (Relative ratio), GLCCI1: GenBank AK126731; for Real time PCR (Relative ratio), TFCP2L4: GenBank BC036890; for Real time PCR (Relative ratio), RGS2: GenBank BC042755; for Real time PCR (Relative ratio), SIAT7A: GenBank BC063830; for Real time PCR (Relative ratio), B7-H4: GenBank BX648021; for Real time PCR (Relative ratio), COBLL1: GenBank BX649112; for Real time PCR (Relative ratio), CGA: GenBank NM_000735; for Real time PCR (Relative ratio), PARP1: GenBank NM_001618; for Real time PCR (Relative ratio), SERPINB9: GenBank NM_004155; for Real time PCR (Relative ratio), ST8SIA4: GenBank NM_005668; for Real time PCR (Relative ratio), ABL1: GenBank NM_007313; for Real time PCR (Relative ratio), GRLF1: GenBank NM_024342; for Real time PCR (Relative ratio), LGP1: GenBank NM_032484; for Real time PCR (Relative ratio), NCOA3: GenBank NM_181659; for Real time PCR (Relative ratio), SR140: GenBank XM_031553; for Real time PCR (Relative ratio), SLC7A8: GenBank Y18483
Procedure: My IQ Real-Time PCR (Bio-Rad, USA) was performed to quantify the expressions of those genes.
Particularly, cDNA was synthesized using oligo dT primer and Superscript kit (Omniscipt™ kit, Qiagen, Co., USA) by reverse transcription. 0.2 μl of the cDNA, 3.8 μl of water, 0.5 μg of a sense primer, 0.5 μg of an antisense primer, and […] of SYBR Green I supermix (Bio-Rad, USA) were mixed, which was placed in a PCR tube, followed by real-time RT-PCR in My IQ real-time PCR machine as follows: Step 1: 95°, 3 minutes; Step 2 (45 cycles): Step 2-1: 95°, 10 seconds; Step 2-2: 55-65° 45 seconds; Step 3: 95°, 1 minute; Step 4: 55°, 1 minute; Step 5 (80 cycles): 55°, 10 seconds. SYBR green I (Bio-Rad, USA) staining was performed to quantify the PCR product. SYBR I staining is the staining method using double stranded DNA binding. So, the more double stranded DNA is generated during PCR, the stronger the fluorescence intensity becomes. First, target gene and endogenous control (GAPDH) primers were added to SYBR green master mix, followed by PCR. Then, primer optimization was performed to determine a proper concentration. Synthesized cDNA and each primer were mixed (Table 4), to which SYBR master mix was added, followed by PCR.

SMILES	Real time PCR (Relative ratio), KIAA0310 [2]	Real time PCR (Relative ratio), ATP10B [2]	Real time PCR (Relative ratio), TTF2 [2]	Real time PCR (Relative ratio), TncRNA [2]	Real time PCR (Relative ratio), C4orf19 [2]	Real time PCR (Relative ratio), CYP19A1 [2]	Real time PCR (Relative ratio), SLC40A1 [2]	Real time PCR (Relative ratio), ABTB2 [2]	Real time PCR (Relative ratio), TUBB3 [2]	Real time PCR (Relative ratio), MGC27016 [2]	Real time PCR (Relative ratio), GLCCI1 [2]	Real time PCR (Relative ratio), TFCP2L4 [2]	Real time PCR (Relative ratio), RGS2 [2]	Real time PCR (Relative ratio), SIAT7A [2]	Real time PCR (Relative ratio), B7-H4 [2]	Real time PCR (Relative ratio), COBLL1 [2]	Real time PCR (Relative ratio), CGA [2]	Real time PCR (Relative ratio), PARP1 [2]	Real time PCR (Relative ratio), SERPINB9 [2]	Real time PCR (Relative ratio), ST8SIA4 [2]	other results
CN(Cc1cnc2nc(N)nc(N)c2n1)c1ccc(C(=O)N[C@@H](CCC(=O)O)C(=O)O)cc1 [MTX, methotrexate]	3.9217	2.6467	1.9659	2.2297	36.2463	1.7007	6.0098	0.1356	4.7892	2.3343	2.5941	0.7146	5.6716	8.3865	0.4198	1.4978	0.0829	0.2381	1.5208	0.955	cytotoxicity to JEG-3 ([1]; FIGS. 1, 2 and 3): confirmed to have toxicity; IC30 (concentration shows 70% survival rate) ([1]; JEG-3, 48 hours, MTT, FIG. 1): 4.570 mM; Real time PCR (Relative ratio), ABL1 [2]: 0.5159; Real time PCR (Relative ratio), GRLF1 [2]: 0.7048; Real time PCR (Relative ratio), LGP1 [2]: 0.6468; Real time PCR (Relative ratio), NCOA3 [2]: 2.4457; Real time PCR (Relative ratio), SR140 [2]: 0.1357; Real time PCR (Relative ratio), SLC7A8 [2]: 2.8779
CCCC(CCC)C(=O)O [VPA, valproic acid]	5.7397	2.7083	1.6637	1.8204	2.9592	2.15	1.9425	4.0469	1.9015	2.3155	1.6023	2.292	2.8779	4.5249	0.0755	12.2271	2.6497	0.7443	7.1977	3.7161	Real time PCR (Relative ratio), ABL1 [2]: 0.8681; Real time PCR (Relative ratio), GRLF1 [2]: 0.8281; Real time PCR (Relative ratio), LGP1 [2]: 0.4982; Real time PCR (Relative ratio), NCOA3 [2]: 2.1913; Real time PCR (Relative ratio), SR140 [2]: 0.3565; Real time PCR (Relative ratio), SLC7A8 [2]: 6.3157
